One may read the IC50 as the concentration needed to halve the response being measured. The inhibition is the share of the control response that was lost under treatment.

IC50, inhibition and Shift data for nine compounds are collected here from patent US8569292B2, “Cyclic inhibitors of 11β-hydroxysteroid dehydrogenase 1” (Vitae Pharmaceuticals, Inc., priority 2008, dated 2013).

The target of assay [1] is T1, CYP2C9 (Homo sapiens, UniProt P11712).
T1 construct: purchased Invitrogen 2859; host or cells: insect cells infected with baculovirus (microsomes)
T1 sequence (P11712 whole entry): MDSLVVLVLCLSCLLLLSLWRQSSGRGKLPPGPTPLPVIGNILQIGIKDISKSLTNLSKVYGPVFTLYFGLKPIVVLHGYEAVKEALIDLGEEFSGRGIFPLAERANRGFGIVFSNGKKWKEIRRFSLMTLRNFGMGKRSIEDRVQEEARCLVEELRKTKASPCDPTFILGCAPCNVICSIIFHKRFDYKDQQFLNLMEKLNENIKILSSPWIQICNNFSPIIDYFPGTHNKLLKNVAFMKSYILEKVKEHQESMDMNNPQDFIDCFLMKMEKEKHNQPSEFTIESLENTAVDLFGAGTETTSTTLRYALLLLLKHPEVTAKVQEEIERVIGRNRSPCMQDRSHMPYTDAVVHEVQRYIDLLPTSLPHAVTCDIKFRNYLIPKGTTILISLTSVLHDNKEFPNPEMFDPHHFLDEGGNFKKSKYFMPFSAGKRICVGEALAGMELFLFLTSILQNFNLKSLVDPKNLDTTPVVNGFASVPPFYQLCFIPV
Briefly: Biological Test Example 9: CYP2C9 inhibition (Invitrogen kit, fluorogenic OOMR). The assay is classed as in vitro ADME.

The target in the next assay is CYP3A4 (Homo sapiens, UniProt P08684). Briefly: Biological Test Example 6: CYP3A4 inhibition (erythromycin N-demethylation). The assay is classed as in vitro ADME.
Chain of CYP3A4 (P08684 whole entry): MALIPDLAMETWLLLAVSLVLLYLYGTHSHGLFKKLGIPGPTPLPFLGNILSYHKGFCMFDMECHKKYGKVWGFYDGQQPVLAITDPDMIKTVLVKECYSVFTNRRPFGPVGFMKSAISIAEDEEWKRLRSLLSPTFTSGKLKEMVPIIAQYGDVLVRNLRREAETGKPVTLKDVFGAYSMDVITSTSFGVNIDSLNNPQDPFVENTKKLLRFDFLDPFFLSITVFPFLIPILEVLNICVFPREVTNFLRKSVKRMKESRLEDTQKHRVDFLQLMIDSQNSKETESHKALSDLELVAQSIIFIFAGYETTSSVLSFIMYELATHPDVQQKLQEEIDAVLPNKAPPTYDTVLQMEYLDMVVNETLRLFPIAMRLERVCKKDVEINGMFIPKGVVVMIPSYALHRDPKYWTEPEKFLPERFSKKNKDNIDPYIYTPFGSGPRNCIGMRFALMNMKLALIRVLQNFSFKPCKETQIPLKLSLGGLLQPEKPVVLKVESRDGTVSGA
Assay [2] has as its target T1, CYP2C9. The assay is described as follows: Biological Test Example 7: CYP2C9 inhibition (naproxen O-demethylation). The assay is classed as in vitro ADME.
Assay [3] deals with T2, 11β-HSD1 (Homo sapiens, UniProt P28845). Briefly: biochemical. Conditions: for inhibition at 0.1 µM: read-out: Average % inhibition at 100 nM.
T2 sequence (P28845 whole entry): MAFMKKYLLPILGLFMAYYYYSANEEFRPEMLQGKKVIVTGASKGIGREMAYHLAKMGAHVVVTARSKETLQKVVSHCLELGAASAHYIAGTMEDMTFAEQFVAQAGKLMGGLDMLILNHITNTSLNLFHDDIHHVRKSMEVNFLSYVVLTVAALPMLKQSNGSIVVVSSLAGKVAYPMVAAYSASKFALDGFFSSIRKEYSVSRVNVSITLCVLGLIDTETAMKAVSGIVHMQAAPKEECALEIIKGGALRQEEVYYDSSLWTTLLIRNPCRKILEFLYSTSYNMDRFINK
Assay [4] concerns the target T2, 11β-HSD1. The assay is described as follows: Biological Test Example 4: microsomal 11β-HSD1 in the presence of 50% human plasma. Conditions: for Shift: IC50 in Test Example 4 divided by IC50 in Test Example 1.
Setting [5] is: Biological Test Example 1 IC50 (nM).
The mark [6] stands for this setting: IC50 Range, Biological Test Example 1.

Consider `COc1ccc(-c2ccc([C@H](C)N3CC[C@](CCCO)(c4ccccc4)OC3=O)cc2)cn1` [EXAMPLE 40, (R)-6-(3-hydroxypropyl)-3-((S)-1-(4-(6-methoxypyridin-3-yl)phenyl)ethyl)-6-phenyl-1,3-oxazinan-2-one], for which, at CYP2C9 [1], the 50% inhibitory concentration (IC50) was 10 µM.

For `C[C@@H](c1ccc(-c2cncc(F)c2)cc1)N1CC[C@](CCCO)(c2ccccc2)OC1=O` [EXAMPLE 49, (R)-3-((S)-1-(4-(5-fluoropyridin-3-yl)phenyl)ethyl)-6-(3-hydroxypropyl)-6-phenyl-1,3-oxazinan-2-one], the IC50 on CYP2C9 [1] is 8.4 µM.

On to `Cc1nc(-c2ccc([C@H](C)N3CC[C@](CC(C)(C)O)(c4ccccc4)OC3=O)cc2)ccc1C#N` [EXAMPLE 1, 6-(4-((S)-1-((S)-6-(2-hydroxy-2-methylpropyl)-2-oxo-6-phenyl-1,3-oxazinan-3-yl)ethyl)phenyl)-2-methylnicotinonitrile], for which the IC50 against CYP3A4 was 16.7 µM; against CYP2C9 [2], 12.9 µM; at 11β-HSD1 [3] (setting [5]), 0.7 nM; on 11β-HSD1 [3] (setting [6]), less than 100 nM; at 11β-HSD1 [4], 7.3 nM. Also, the inhibition at 0.1 µM on 11β-HSD1 [3] was 96.4%.

As for `Cc1cc(-c2ccc([C@H](C)N3CC[C@](CCC(N)=O)(c4ccccc4)OC3=O)cc2)ccn1` [EXAMPLE 98, 3-((R)-3-((S)-1-(4-(2-methylpyridin-4-yl)phenyl)ethyl)-2-oxo-6-phenyl-1,3-oxazinan-6-yl)propanamide], the IC50 against CYP3A4 is 42.2 µM; against 11β-HSD1 [3] (setting [5]), 1.4 nM; at 11β-HSD1 [3] (setting [6]), less than 100 nM; on 11β-HSD1 [4], 6.3 nM. In addition, the inhibition at 0.1 µM at 11β-HSD1 [3] is 97.8%.

For the compound `Cc1cc(-c2ccc([C@H](C)N3CC[C@](CCC(N)=O)(c4ccc(F)cc4)OC3=O)cc2)ccn1` [EXAMPLE 78, 3-((R)-6-(4-fluorophenyl)-3-((S)-1-(4-(2-methylpyridin-4-yl)phenyl)ethyl)-2-oxo-1,3-oxazinan-6-yl)propanamide], the IC50 against CYP3A4 is 7.3 µM; on 11β-HSD1 [3] (setting [5]) it was 1.8 nM; at 11β-HSD1 [3] (setting [6]) it was less than 100 nM; on 11β-HSD1 [4], 19.8 nM. In addition, the inhibition at 0.1 µM on 11β-HSD1 [3] worked out at 95.8%.

Regarding `C[C@@H](c1ccc(-c2cc(C#N)ccn2)cc1)N1CC[C@](CC(C)(C)O)(c2ccccc2)OC1=O` [EXAMPLE 164, 2-(4-((S)-1-((S)-6-(2-hydroxy-2-methylpropyl)-2-oxo-6-phenyl-1,3-oxazinan-3-yl)ethyl)phenyl)isonicotinonitrile], the IC50 is 1.2 nM at 11β-HSD1 [3] (setting [5]), less than 100 nM at 11β-HSD1 [3] (setting [6]) and 22.2 nM at 11β-HSD1 [4]. Moreover, on 11β-HSD1 [3], the inhibition at 0.1 µM turned out to be 99.4%. Further, the Shift at 11β-HSD1 [4] was determined as 18.2.

As for `Cc1cc(-c2ccc([C@H](C)N3CC[C@](CCCNS(C)(=O)=O)(c4ccccc4)OC3=O)cc2)ccn1` [EXAMPLE 99, N-(3-((R)-3-((S)-1-(4-(2-methylpyridin-4-yl)phenyl)ethyl)-2-oxo-6-phenyl-1,3-oxazinan-6-yl)propyl)methanesulfonamide], the figures for the half-maximal inhibitory concentration (IC50) against 11β-HSD1 [3] (setting [5]), against 11β-HSD1 [3] (setting [6]) and at 11β-HSD1 [4] were 0.5 nM, less than 100 nM and 7.9 nM, respectively. Besides, the inhibition at 0.1 µM on 11β-HSD1 [3] came out at 98.5%. Moreover, on 11β-HSD1 [4], the Shift was determined as 16.6.

On to `Cc1nccn1-c1ncc(-c2ccc([C@H](C)N3CC[C@](CC(C)(C)O)(c4ccccc4)OC3=O)cc2)cn1` [EXAMPLE 27, (S)-6-(2-hydroxy-2-methylpropyl)-3-((S)-1-(4-(2-(2-methyl-1H-imidazol-1-yl)pyrimidin-5-yl)phenyl)ethyl)-6-phenyl-1,3-oxazinan-2-one], for which the half-inhibitory concentration (IC50) was 1.2 nM on 11β-HSD1 [3] (setting [5]), less than 100 nM against 11β-HSD1 [3] (setting [6]) and 4.7 nM on 11β-HSD1 [4]. At 11β-HSD1 [3], the inhibition at 0.1 µM came to 96.8%. For the same compound, the Shift at 11β-HSD1 [4] is on record as 3.8.

Consider `C[C@@H](c1ccc(-c2ccccn2)cc1)N1CC[C@](CC(C)(C)O)(c2ccccc2)OC1=O` [EXAMPLE 86, (S)-6-(2-hydroxy-2-methylpropyl)-6-phenyl-3-((S)-1-(4-(pyridin-2-yl)phenyl)ethyl)-1,3-oxazinan-2-one], for which the IC50 at 11β-HSD1 [3] (setting [5]) was 0.6 nM; at 11β-HSD1 [3] (setting [6]), less than 100 nM; at 11β-HSD1 [4], 6.4 nM. Besides, at 11β-HSD1 [3], the inhibition at 0.1 µM worked out at 99.6%. The Shift on 11β-HSD1 [4] stood at 11.1.
